Measured values: patent US6426343B1, “Preparation and use of a specific GABA-Aα5 receptor ligand for treatment of Alzheimer's disease” (Merck Sharp & Dohme Ltd., priority 1995, dated 2002)

Columns and labels:
[1] = tested on: α1 and α5-containing receptors; details: cited from earlier work
[2] = tested on: male Sprague Dawley rats; experiment: Pro-convulsant testing, acute treatment, PTZ infusion; type: in vivo, rat; details: 10.0 mg/kg IP 30 min prior to PTZ infusion; post hoc tests
Method: Sixty naive male Sprague Dawley rats (225-265 g) housed in groups of four with food and water freely available, served as subjects. The rats were assigned to one of six groups and given: Vehicle or 0.5, 1.0, 2.0, 4.0 mg/kg of […] or 10.0 mg/kg of the non-selective receptor inverse agonist, CGS 8216, a known pro-convulsant agent. Vehicle, FG 8094 or CGS 8216 was administered IP 30 min prior to an infusion of the convulsant, pentylenetetrazole (PTZ, 40 mg/ml). PTZ was infused into the tail vein of the rat at the rate of 1.0 ml/min. The latency to clonic and tonic seizure were recorded and the threshold to each was calculated using the equation: Threshold dose=infusion rate (ml/s)×PTZ (mg/ml)×(1000/rats weight)×latency(s).

[3] = molecular target: T1, α5β3γ2 (Homo sapiens, UniProt P18507+P31644); experiment: Radioligand binding, membranes of stably transfected cells; details: [3H]Ro 15-1788 at twice Kd; mean±SEM, 3-6 determinations; read-out: Ki α5β3γ2
T1 construct: expressed in transfected cells
T1 sequence (P31644 32-462): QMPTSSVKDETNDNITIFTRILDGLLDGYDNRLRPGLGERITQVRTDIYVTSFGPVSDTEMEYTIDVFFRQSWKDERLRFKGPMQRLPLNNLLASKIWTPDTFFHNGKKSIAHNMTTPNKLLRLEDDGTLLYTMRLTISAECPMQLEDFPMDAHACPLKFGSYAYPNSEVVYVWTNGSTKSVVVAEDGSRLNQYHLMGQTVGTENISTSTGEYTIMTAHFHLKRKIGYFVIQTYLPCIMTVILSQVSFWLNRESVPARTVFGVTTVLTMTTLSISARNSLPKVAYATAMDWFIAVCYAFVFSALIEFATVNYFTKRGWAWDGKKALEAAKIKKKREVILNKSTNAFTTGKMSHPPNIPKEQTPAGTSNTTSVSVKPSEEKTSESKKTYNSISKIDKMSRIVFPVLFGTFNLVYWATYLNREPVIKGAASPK
T1 sequence (P28472 26-473 partner): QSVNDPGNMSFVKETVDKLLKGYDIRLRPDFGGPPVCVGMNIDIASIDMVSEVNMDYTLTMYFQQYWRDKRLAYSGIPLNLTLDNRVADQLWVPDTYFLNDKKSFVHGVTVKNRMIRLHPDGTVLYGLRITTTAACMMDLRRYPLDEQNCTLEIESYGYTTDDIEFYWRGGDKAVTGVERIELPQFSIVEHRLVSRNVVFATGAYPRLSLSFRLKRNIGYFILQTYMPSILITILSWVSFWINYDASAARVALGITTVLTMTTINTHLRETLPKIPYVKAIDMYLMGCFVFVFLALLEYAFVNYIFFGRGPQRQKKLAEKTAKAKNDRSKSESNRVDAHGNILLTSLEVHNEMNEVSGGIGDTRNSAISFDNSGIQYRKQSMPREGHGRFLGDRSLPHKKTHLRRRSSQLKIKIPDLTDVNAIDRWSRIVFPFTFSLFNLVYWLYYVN
T1 sequence (P18507 40-467 isoform P18507-1 limits assumed): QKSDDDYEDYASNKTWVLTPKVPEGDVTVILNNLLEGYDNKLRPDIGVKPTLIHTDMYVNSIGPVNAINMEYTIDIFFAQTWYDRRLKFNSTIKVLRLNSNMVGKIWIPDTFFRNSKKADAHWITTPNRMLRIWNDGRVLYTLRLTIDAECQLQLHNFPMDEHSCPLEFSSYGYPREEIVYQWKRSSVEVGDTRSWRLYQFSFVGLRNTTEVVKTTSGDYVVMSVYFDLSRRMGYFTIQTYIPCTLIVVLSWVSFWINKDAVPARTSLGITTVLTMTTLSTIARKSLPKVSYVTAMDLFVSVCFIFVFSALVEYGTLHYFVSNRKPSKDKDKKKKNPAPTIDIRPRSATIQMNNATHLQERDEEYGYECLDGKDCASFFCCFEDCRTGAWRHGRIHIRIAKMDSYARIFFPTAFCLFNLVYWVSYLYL

[4] = molecular target: T2, α3β3γ2 (Homo sapiens, UniProt P18507+P34903); experiment: as above; details: [3H]Ro 15-1788 at twice Kd; mean±SEM, 3-6 determinations; read-out: Ki α3β3γ2
T2 construct: expressed in transfected cells
T2 sequence (P34903 29-492): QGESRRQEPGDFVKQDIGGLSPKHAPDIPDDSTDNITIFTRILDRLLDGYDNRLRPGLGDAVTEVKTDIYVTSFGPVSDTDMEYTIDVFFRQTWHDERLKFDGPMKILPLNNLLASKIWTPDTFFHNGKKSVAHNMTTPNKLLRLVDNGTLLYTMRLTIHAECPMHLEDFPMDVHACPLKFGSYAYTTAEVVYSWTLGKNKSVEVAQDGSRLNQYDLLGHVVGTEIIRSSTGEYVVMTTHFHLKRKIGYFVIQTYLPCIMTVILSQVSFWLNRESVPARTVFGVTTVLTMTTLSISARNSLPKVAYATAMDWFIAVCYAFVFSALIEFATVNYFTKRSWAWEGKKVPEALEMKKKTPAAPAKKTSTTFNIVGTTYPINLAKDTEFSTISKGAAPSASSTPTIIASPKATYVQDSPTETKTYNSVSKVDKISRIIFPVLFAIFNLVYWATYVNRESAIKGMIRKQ
T2 sequence (P28472 26-473 partner): as the sequence (P28472 26-473 partner) above
T2 sequence (P18507 40-467 isoform P18507-1 limits assumed): as the sequence (P18507 40-467 isoform P18507-1 limits assumed) above

[5] = molecular target: T3, α6β3γ2 (Homo sapiens, UniProt P18507+Q16445); experiment: as above; details: [3H]Ro 15-4513 as radioligand; mean±SEM, 3-6 determinations; read-out: Ki α6β3γ2
T3 construct: expressed in transfected cells
T3 sequence (Q16445 20-453): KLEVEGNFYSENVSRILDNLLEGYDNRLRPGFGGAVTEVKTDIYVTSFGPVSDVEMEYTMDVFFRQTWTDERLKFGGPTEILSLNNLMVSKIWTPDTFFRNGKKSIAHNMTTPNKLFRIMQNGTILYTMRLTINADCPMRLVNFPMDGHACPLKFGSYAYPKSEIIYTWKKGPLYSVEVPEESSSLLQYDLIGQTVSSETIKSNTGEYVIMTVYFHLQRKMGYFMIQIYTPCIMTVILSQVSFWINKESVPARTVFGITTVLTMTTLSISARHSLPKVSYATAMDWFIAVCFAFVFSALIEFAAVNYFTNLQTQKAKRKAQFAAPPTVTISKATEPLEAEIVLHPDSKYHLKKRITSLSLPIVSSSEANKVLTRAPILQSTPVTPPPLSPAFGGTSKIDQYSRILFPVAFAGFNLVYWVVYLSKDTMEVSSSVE
T3 sequence (P28472 26-473 partner): as the sequence (P28472 26-473 partner) above
T3 sequence (P18507 40-467 isoform P18507-1 limits assumed): as the sequence (P18507 40-467 isoform P18507-1 limits assumed) above

[6] = in vivo; cited from earlier work

For `Cc1ccc(-c2nc3ccc(C)cn3c2CC(=O)N(C)C)cc1` [zolpidem], the “relative affinity α1 versus α5-containing receptors” value [1] is listed as “greater anfinity for α1 than for α5-containing receptors”.
For `O=C1C2C=Nc3ccccc3C2=NN1c1ccccc1` (stereo not shown) [CGS 8216, reference compound], the “threshold dose of PTZ to tonic seizures” value [2] was “significantly lowered the threshold doses to tonic seizures”.
For `CCOC(=O)c1ncn2c1CN(C)C(=O)c1cc(N=[N+]=[N-])ccc1-2` [Ro 15-4513, reference compound], the Ki [3] was 0.24 ± 0.05 nM, the Ki [4] was 1.28 ± 0.06 nM and the Ki [5] was 6.5 ± 0.6 nM.
For `COC(=O)c1cc2c(cn1)[nH]c1ccccc12` [β-CCM], the “spatial learning in the Morris watermaze” value [6] is listed as “enhanced spatial learning”.
For `Cc1nnc2ccc(-c3cccc(C(F)(F)F)c3)nn12` [CL 218,872], the “relative affinity α1 versus α5-containing receptors” value [1] is listed as “greater anfinity for α1 than for α5-containing receptors”.
